Test results as given in patent publication US8030321B2, “Benzofuro- and benzothienopyrimidine modulators of the histamine H4 receptor” (Janssen Pharmaceutica, NV, priority 2006, dated 2011).
Counter-ions that a name gives are not always drawn. Like-named read-outs stand apart in the source and are kept apart here.

Target: T1, human histamine H4 receptor (Homo sapiens, UniProt Q9H3N8)
T1 construct: expressed in transfected cells; host or cells: SK-N-MC cells or COS7 cells, transiently transfected; cell membranes used
Test: Binding Assay on Recombinant Human Histamine H4 Receptor
How it was run: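 Membranes from SK-N-MC or COS7 cells transiently transfected with human H4 receptor were incubated with ³H-histamine (5-70 nM); nonspecific binding defined with 10,000 nM histamine. Bound radioactivity collected by GF/C filtration and scintillation counting; test compounds assessed by displacement of ³H-ligand binding across concentrations.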

[1] = competition binding with 3H-histamine (5 nM), membranes of SK-N-MC or COS7 cells expressing human H4 receptor, Cheng-Prusoff, KD 5 nM, average of results obtained, read-out: Ki

T1 sequence (Q9H3N8 whole entry): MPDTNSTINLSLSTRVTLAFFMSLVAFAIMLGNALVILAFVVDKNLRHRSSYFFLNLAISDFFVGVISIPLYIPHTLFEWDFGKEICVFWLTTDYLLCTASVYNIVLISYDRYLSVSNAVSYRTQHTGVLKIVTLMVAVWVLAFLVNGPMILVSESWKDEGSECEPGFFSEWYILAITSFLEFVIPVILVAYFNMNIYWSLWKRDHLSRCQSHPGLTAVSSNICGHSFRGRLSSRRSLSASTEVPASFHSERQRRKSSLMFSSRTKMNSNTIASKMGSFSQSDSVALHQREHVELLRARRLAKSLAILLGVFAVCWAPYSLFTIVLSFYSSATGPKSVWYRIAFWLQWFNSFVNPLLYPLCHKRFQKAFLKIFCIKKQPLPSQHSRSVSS

Row | Compound | Ki [1] [nM] | Ki [nM]
1 | CN[C@@H]1CCN(c2nc(N)nc3c2oc2cccc(OC)c23)C1 [Example 100, (R)-9-Methoxy-4-(3-methylamino-pyrrolidin-1-yl)-benzo[4,5]furo[3,2-d]pyrimidin-2-ylamine trifluoroacetic acid salt] | 20 | 
2 | CN1CCN(c2nc(N)nc3c2oc2ccc(Cl)c(Cl)c23)CC1 [Example 101, 8,9-Dichloro-4-(4-methyl-piperazin-1-yl)-benzo[4,5]furo[3,2-d]pyrimidin-2-ylamine trifluoroacetic acid salt] | 7.8 | 
3 | CN[C@@H]1CCN(c2nc(N)nc3c2oc2ccc(OC)cc23)C1 [Example 102, (R)-8-Methoxy-4-(3-methylamino-pyrrolidin-1-yl)-benzo[4,5]furo[3,2-d]pyrimidin-2-ylamine trifluoroacetic acid salt] | 12 | 
4 | NCC1CN(c2nc(N)nc3c2oc2ccc(Cl)cc23)C1 [Example 103, 4-(3-Aminomethyl-azetidin-1-yl)-8-chloro-benzo[4,5]furo[3,2-d]pyrimidin-2-ylamine trifluoroacetic acid salt] | 3.4 | 
5 | Nc1nc(N2CCNCC2)c2oc3ccc(Cl)c(Cl)c3c2n1 [Example 104, 8,9-Dichloro-4-piperazin-1-yl-benzo[4,5]furo[3,2-d]pyrimidin-2-ylamine trifluoroacetic acid salt] | 61 | 
6 | CN1C[C@@H]2C[C@H]1CN2c1nc(N)nc2c1oc1ccc(Cl)cc12 [Example 106, (S,S)-8-Chloro-4-(5-methyl-2,5-diaza-bicyclo[2.2.1]hept-2-yl)-benzo[4,5]furo[3,2-d]pyrimidin-2-ylamine trifluoroacetic acid salt] |  | 11
7 | COc1ccc2oc3c(N4CCC[C@H](N)C4)nc(N)nc3c2c1 [Example 107, (S)-4-(3-Amino-piperidin-1-yl)-8-methoxy-benzo[4,5]furo[3,2-d]pyrimidin-2-ylamine trifluoroacetic acid salt] | 360 | 
8 | Nc1nc(N2CC[C@@H](N)C2)c2oc3ccccc3c2n1 [Example 108, (R)-4-(3-Amino-pyrrolidin-1-yl)-benzo[4,5]furo[3,2-d]pyrimidin-2-ylamine] | 2.6 | 
9 | CN[C@@H]1CCN(c2nc(N)nc3c2oc2ncc(Cl)cc23)C1 [Example 109, (R)-3-Chloro-8-(3-methylamino-pyrrolidin-1-yl)-9-oxa-1,5,7-triaza-fluoren-6-ylamine] | 260 | 
10 | Nc1nc(NCC2CNC2)c2oc3ccc(Cl)cc3c2n1 [Example 110, N^4-Azetidin-3-ylmethyl-8-chloro-benzo[4,5]furo[3,2-d]pyrimidine-2,4-diamine trifluoroacetic acid salt] | 1820 | 
11 | Nc1nc(NC2CNC2)c2oc3ccc(Cl)cc3c2n1 [Example 111, N^4-Azetidin-3-yl-8-chloro-benzo[4,5]furo[3,2-d]pyrimidine-2,4-diamine trifluoroacetic acid salt] | 330 | 
12 | NCCNc1nc(N)nc2c1oc1ccc(Cl)cc12 [Example 112, N^4-(2-Amino-ethyl)-8-chloro-benzo[4,5]furo[3,2-d]pyrimidine-2,4-diamine trifluoroacetic acid salt] | 41 | 
13 | COc1ccc2oc3c(N4C[C@@H]5C[C@H]4CN5)nc(N)nc3c2c1 [Example 113, (S,S)-4-(2,5-Diaza-bicyclo[2.2.1]hept-2-yl)-8-methoxy-benzo[4,5]furo[3,2-2]pyrimidin-2-ylamine trifluoroacetic acid salt] | 420 | 
14 | CN1CCN(c2nc(NCCO)nc3c2oc2ccc(Cl)cc23)CC1 [Example 115, 2-[8-Chloro-4-(4-methyl-piperazin-1-yl)-benzo[4,5]furo[3,2-d]pyrimidin-2-ylamino]-ethanol] | 4.3 | 
15 | CN1CCN(c2nc(NCCO)nc3c2oc2ccccc23)CC1 [Example 116, 2-[4-(4-Methyl-piperazin-1-yl)-benzo[4,5]furo[3,2-d]pyrimidin-2-ylamino]-ethanol] | 68 | 
16 | COc1ccc2oc3c(N4CCN(C)CC4)nc(NCCO)nc3c2c1 [Example 118, 2-[8-Methoxy-4-(4-methyl-piperazin-1-yl)-benzo[4,5]furo[3,2-d]pyrimidin-2-ylamino]-ethanol] | 200 | 
17 | CN1CCN(c2nc(NC3CC3)nc3c2oc2ccc(Cl)cc23)CC1 [Example 119, [8-Chloro-4-(4-methyl-piperazin-1-yl)-benzo[4,5]furo[3,2-d]pyrimidin-2-yl]-cyclopropyl-amine] | 350 | 
18 | CC(C)CNc1nc(N2CCN(C)CC2)c2oc3ccc(Cl)cc3c2n1 [Example 120, [8-Chloro-4-(4-methyl-piperazin-1-yl)-benzo[4,5]furo[3,2-d]pyrimidin-2-yl]-isobutyl-amine] | 3330 | 
19 | C=CCNc1nc(N2CCN(C)CC2)c2oc3ccc(Cl)cc3c2n1 [Example 121, Allyl-[8-chloro-4-(4-methyl-piperazin-1-yl)-benzo[4,5]furo[3,2-d]pyrimidin-2-yl]-amine] | 220 | 

Row | Compound | Ki [1] [nM] | Ki [nM]
20 | CN1CCN(c2nc(NCCCN)nc3c2oc2ccc(Cl)cc23)CC1 [Example 122, N^1-[8-Chloro-4-(4-methyl-piperazin-1-yl)-benzo[4,5]furo[3,2-d]pyrimidin-2-yl]-propane-1,3-diamine] | 300 | 
21 | CSCCNc1nc(N2CCN(C)CC2)c2oc3ccc(Cl)cc3c2n1 [Example 123, [8-Chloro-4-(4-methyl-piperazin-1-yl)-benzo[4,5]furo[3,2-d]pyrimidin-2-yl]-(2-methylsulfanyl-ethyl)-amine] | 520 | 
22 | CNc1nc(N2CCN(C)CC2)c2oc3ccc(Cl)cc3c2n1 [Example 124, [8-Chloro-4-(4-methyl-piperazin-1-yl)-benzo[4,5]furo[3,2-d]pyrimidin-2-yl]-methyl-amine] | 97 | 
23 | OCCNc1nc(N2C[C@@H]3C[C@H]2CN3)c2oc3ccc(Cl)cc3c2n1 [Example 125, (S,S)-2-[8-Chloro-4-(2,5-diaza-bicyclo[2.2.1]hept-2-yl)-benzo[4,5]furo[3,2-d]pyrimidin-2-ylamino]-ethanol] | 580 | 
24 | CNC1CCN(c2nc(NCCO)nc3c2oc2ccc(Cl)cc23)C1 (stereo not shown) [Example 126, 2-[8-Chloro-4-(3-methylamino-pyrrolidin-1-yl)-benzo[4,5]furo[3,2-d]pyrimidin-2-ylamino]-ethanol] | 210 | 
25 | CN1CCCN(c2nc(NCCO)nc3c2oc2ccc(Cl)cc23)CC1 [Example 127, 2-[8-Chloro-4-(4-methyl-[1,4]diazepan-1-yl)-benzo[4,5]furo[3,2-d]pyrimidin-2-ylamino]-ethanol] | 260 | 
26 | Nc1nc(N2CC(N)C2)c2oc3ccc(Cl)cc3c2n1 [Example 129, 4-(3-Amino-azetidin-1-yl)-8-chloro-benzo[4,5]furo[3,2-d]pyrimidin-2-ylamine trifluoroacetic acid salt] | 19 | 
27 | C[C@@H]1CN(c2nc(N)nc3c2oc2ccc(Cl)cc23)[C@@H](C)CN1 [Example 130, (2S,5R)-8-Chloro-4-(2,5-dimethyl-piperazin-1-yl)-benzo[4,5]furo[3,2-d]pyrimidin-2-ylamine trifluoroacetic acid salt] | 140 | 
28 | C[C@H]1CNCCN1c1nc(N)nc2c1oc1ccc(Cl)cc12 [Example 131, (S)-8-Chloro-4-(2-methyl-piperazin-1-yl)-benzo[4,5]furo[3,2-d]pyrimidin-2-ylamine trifluoroacetic acid salt] | 60 | 
29 | C[C@@H]1CNCCN1c1nc(N)nc2c1oc1ccc(Cl)cc12 [Example 132, (R)-8-Chloro-4-(2-methyl-piperazin-1-yl)-benzo[4,5]furo[3,2-d]pyrimidin-2-ylamine trifluoroacetic acid salt] | 120 | 
30 | C[C@H]1CN(c2nc(N)nc3c2oc2ccc(Cl)cc23)CCN1 [Example 133, (S)-8-Chloro-4-(5-methyl-piperazin-1-yl)-benzo[4,5]furo[3,2-d]pyrimidin-2-ylamine trifluoroacetic acid salt] | 5.7 | 
31 | C[C@@H]1CN(c2nc(N)nc3c2oc2ccc(Cl)cc23)CCN1 [Example 134, (R)-8-Chloro-4-(5-methyl-piperazin-1-yl)-benzo[4,5]furo[3,2-d]pyrimidin-2-ylamine trifluoroacetic acid salt] | 50 | 
32 | CN1CCN(c2nc(N)nc3c2oc2cccc(F)c23)CC1 [Example 135, 9-Fluoro-4-(4-methyl-piperazin-1-yl)-benzo[4,5]furo[3,2-d]pyrimidin-2-ylamine trifluoroacetic acid salt] | 21 | 
33 | CN[C@@H]1CCN(c2nc(N)nc3c2oc2cccc(F)c23)C1 [Example 136, (R)-9-Fluoro-4-(3-methylamino-pyrrolidin-1-yl)-benzo[4,5]furo[3,2-d]pyrimidin-2-ylamine trifluoroacetic acid salt] | 10 | 
34 | Nc1nc(N2CCNCC2)c2oc3cccc(F)c3c2n1 [Example 137, 9-Fluoro-4-piperazin-1-yl-benzo[4,5]furo[3,2-d]pyrimidin-2-ylamine trifluoroacetic acid salt] | 150 | 
35 | Nc1nc(N2CC(N)C2)c2oc3cccc(F)c3c2n1 [Example 138, 4-(3-Amino-azetidin-1-yl)-9-fluoro-benzo[4,5]furo[3,2-d]pyrimidin-2-ylamine trifluoroacetic acid salt] | > 10000 | 
36 | CN1CCN(c2nc(N)nc3c2oc2ccc(C(F)(F)F)cc23)CC1 [Example 139, 4-(4-Methyl-piperazin-1-yl)-8-trifluoromethyl-benzo[4,5]furo[3,2-d]pyrimidin-2-ylamine trifluoroacetic acid salt] | 0.8 | 
37 | CN[C@@H]1CCN(c2nc(N)nc3c2oc2ccc(C(F)(F)F)cc23)C1 [Example 140, (R)-4-(3-Methylamino-pyrrolidin-1-yl)-8-trifluoromethyl-benzo[4,5]furo[3,2-d]pyrimidin-2-ylamine trifluoroacetic acid salt] | 1 | 
